SMILES	boiling point [°C]	melting point [°C]	also measured
c1ccc(COc2ccccc2)cc1	286	40	log10 vapour pressure (mmHg): -2.2
CC[N+](C)(CC)CCOC(=O)C(O)(c1cccs1)C1CCCC1.[Br-] (configuration not stated)		125	
Cn1nnc2ccccc21	270	64.5	
FC(F)(Br)C(F)(F)C(F)(F)C(F)(F)C(F)(F)C(F)(F)C(F)(F)Br	159		
O=C1COc2ccccc21		102	
CN(CCO)CCO	247	-21	log10 vapour pressure (mmHg): -3.7; ready biodegradability: not readily biodegradable
C[C@@H]1C[C@H]2CC[C@H](O2)[C@H](C)C(=O)O[C@@H](C)C[C@@H]2CC[C@@H](O2)[C@@H](C)C(=O)O[C@H](C)C[C@H]2CC[C@H](O2)[C@H](C)C(=O)O[C@@H](C)C[C@@H]2CC[C@@H](O2)[C@@H](C)C(=O)O1		148	
COc1ccccc1OC(C)=O		31.5	
Cc1ccc(Br)cc1C	214	-0.2	
CC(O)CO (configuration not stated)	188	-60	log10 Koc (L/kg): 0.36; log10 vapour pressure (mmHg): -0.889; ready biodegradability: readily biodegradable
CC(C)C1=CC(O)C(C)CC1 (configuration not stated)	220		
Brc1ccc2ccccc2c1	282	59	
O=c1oc(=O)c2ccccc2c2ccccc12		217	
CC(C)C(C)C	57.9	-129	log10 vapour pressure (mmHg): 2.37
FC(Cl)(Cl)C(Cl)(Cl)Cl	135	101	
CCCCC(=O)OC	127		log10 Henry constant (atm·m³/mol): -3.5; log10 vapour pressure (mmHg): 1.28
CCCCC1C(=O)NC(=O)N(C2CCCCC2)C1=O (configuration not stated)		84	
C=CCC1(CC(=C)Br)C(=O)NC(=O)NC1=O		168	
CCCCOCC(C)C	151		
CC(=O)OCC(=O)[C@@]12OC(C)(C)O[C@@H]1C[C@H]1[C@@H]3CC(C=O)=C4C=C(OCCCl)CC[C@]4(C)[C@@]3(F)[C@@H](O)C[C@@]12C		181	
C#C[C@]1(O)CC[C@H]2[C@@H]3[C@H](C)CC4=C(CCC(=O)C4)[C@H]3CC[C@@]21C		167	
BrCOCBr	154	-34	

SMILES	boiling point [°C]	melting point [°C]	also measured
CC(C)c1ccc(C(=O)O)cc1		118	ready biodegradability: readily biodegradable
CCC(Br)Br	134		
Cc1ccc(S(=O)(=O)c2coc(S(N)(=O)=O)c2)cc1		185	
CC1(C)CC[C@]2(C(=O)O)[C@H](O)C[C@]3(C)C(=CC[C@@H]4[C@@]5(C)CC[C@H](O)[C@@](C)(C=O)[C@@H]5CC[C@]43C)[C@@H]2C1		294	
CCC(C)(C)C(C)(C)CC	170		
O=c1[nH]cc(Br)c(=O)[nH]1		310	
CCCCCCCOC(=O)CCCC	245	-46.4	
CCCCC(O)(Cn1cncn1)c1ccc(Cl)cc1Cl (configuration not stated)		111	log10 vapour pressure (mmHg): -6.87
C[Si]1(C)O[Si](C)(C)O[Si](C)(C)O[Si](C)(C)O[Si](C)(C)O[Si](C)(C)O[Si](C)(C)O1		-26	log10 vapour pressure (mmHg): -1.95; log10 biotransformation half-life (days) (fish): 1.48
Cc1cnc2ccccc2c1	260	16.5	
Nc1ccc(S(=O)(=O)F)cc1		68.5	
CC(C)C1CCC(C)(O)CC1 (configuration not stated)	208		
C#CCOc1cc(-n2nc(C(C)(C)C)oc2=O)c(Cl)cc1Cl		131	log10 vapour pressure (mmHg): -7.73
CC(C)(C)Oc1ccccc1	186	-24	
ClC(Cl)=C(Cl)c1c(Cl)c(Cl)c(Cl)c(Cl)c1Cl			log10 BCF (fish): 3.91; log10 biotransformation half-life (days) (fish): 2.04
O=C(O)Cc1cccc(F)c1		43	
CCC=C(C)CO	168		
CC(C)NCC(O)COc1ccc(CCOCC2CC2)cc1 (configuration not stated)		71	
CCOc1ccc(I)cc1	250	29	
CC(C)(C)c1cc(N=Nc2ccccc2[N+](=O)[O-])c(O)c(C(C)(C)C)c1			ready biodegradability: not readily biodegradable
CCOc1ccc(NC(=O)C(C)O)cc1 (configuration not stated)		118	
C[C@@H]1O[C@@H](O[C@H]2CC[C@]3(C=O)[C@H]4CC[C@]5(C)[C@@H](c6ccc(=O)oc6)CC[C@]5(O)[C@@H]4CC[C@]3(O)C2)[C@H](O)[C@H](O)[C@H]1O[C@@H]1O[C@H](CO)[C@@H](O)[C@H](O)[C@H]1O		284	

From the OPERA property sets (Mansouri et al. 2018)
